Data as given in ChEMBL document CHEMBL4507324 (2021).

Columns and labels:
Conditions in all cases: Compound concentration 100.0 nM
[1] = system: Tyrosine-protein kinase ABL1 (Homo sapiens), P00519 [H396P]
[2] = target: High affinity nerve growth factor receptor (Homo sapiens) (UniProt P04629)
[3] = target: Vascular endothelial growth factor receptor 1 (Homo sapiens) (UniProt P17948)
[4] = target: Phosphatidylinositol 4,5-bisphosphate 3-kinase catalytic subunit delta isoform (Homo sapiens) (UniProt O00329)
[5] = system: Receptor-type tyrosine-protein kinase FLT3 (Homo sapiens), P36888 [N841I]
[6] = target: Vascular endothelial growth factor receptor 3 (Homo sapiens) (UniProt P35916)
[7] = target: Ephrin type-B receptor 4 (Homo sapiens) (UniProt P54760)
[8] = target: Mitogen-activated protein kinase kinase kinase 9 (Homo sapiens) (UniProt P80192)
[9] = target: Casein kinase II subunit alpha (Homo sapiens) (UniProt P68400)
[10] = target: Muscle, skeletal receptor tyrosine-protein kinase (Homo sapiens) (UniProt O15146)
[11] = target: Mitogen-activated protein kinase 10 (Homo sapiens) (UniProt P53779)
[12] = system: Receptor-type tyrosine-protein kinase FLT3 (Homo sapiens), P36888 [D835H]
[13] = target: Ephrin type-A receptor 3 (Homo sapiens) (UniProt P29320)
[14] = target: Ephrin type-A receptor 2 (Homo sapiens) (UniProt P29317)
[15] = target: Proto-oncogene tyrosine-protein kinase receptor Ret (Homo sapiens) (UniProt P07949)
[16] = system: ALK tyrosine kinase receptor (Homo sapiens), Q9UM73 [L1196M]
[17] = target: Aurora kinase C (Homo sapiens) (UniProt Q9UQB9)
[18] = target: Serine/threonine-protein kinase 24 (Homo sapiens) (UniProt Q9Y6E0)
[19] = system: Leucine-rich repeat serine/threonine-protein kinase 2 (Homo sapiens), Q5S007 [G2019S]
[20] = target: Phosphatidylinositol 4-phosphate 5-kinase type-1 gamma (Homo sapiens) (UniProt O60331)
[21] = target: Homeodomain-interacting protein kinase 4 (Homo sapiens) (UniProt Q8NE63)
[22] = target: Fibroblast growth factor receptor 3 (Homo sapiens) (UniProt P22607)
[23] = target: Serine/threonine-protein kinase Sgk3 (Homo sapiens) (UniProt Q96BR1)
[24] = target: Dual specificity mitogen-activated protein kinase kinase 6 (Homo sapiens) (UniProt P52564)
[25] = target: Dual specificity mitogen-activated protein kinase kinase 3 (Homo sapiens) (UniProt P46734)
[26] = target: Ribosomal protein S6 kinase beta-1 (Homo sapiens) (UniProt P23443)
[27] = target: Serine/threonine-protein kinase PLK4 (Homo sapiens) (UniProt O00444)
[28] = target: Serine/threonine-protein kinase N2 (Homo sapiens) (UniProt Q16513)
[29] = target: Mitogen-activated protein kinase kinase kinase 3 (Homo sapiens) (UniProt Q99759)
[30] = target: Activated CDC42 kinase 1 (Homo sapiens) (UniProt Q07912)
[31] = target: Serine/threonine-protein kinase MAK (Homo sapiens) (UniProt P20794)
[32] = system: Phosphatidylinositol 4,5-bisphosphate 3-kinase catalytic subunit alpha isoform (Homo sapiens), P42336 [M1043I]
[33] = target: Cyclin-dependent kinase 2 (Homo sapiens) (UniProt P24941)
[34] = system: Phosphatidylinositol 4,5-bisphosphate 3-kinase catalytic subunit alpha isoform (Homo sapiens), P42336 [H1047Y]
[35] = target: Proto-oncogene tyrosine-protein kinase Src (Homo sapiens) (UniProt P12931)
[36] = target: Serine/threonine-protein kinase NIM1 (Homo sapiens) (UniProt Q8IY84)
[37] = target: Dual specificity tyrosine-phosphorylation-regulated kinase 1A (Homo sapiens) (UniProt Q13627)
[38] = target: Receptor tyrosine-protein kinase erbB-3 (Homo sapiens) (UniProt P21860)
[39] = target: Cyclin-dependent kinase 19 (Homo sapiens) (UniProt Q9BWU1)
[40] = target: Cyclin-dependent kinase 11B (Homo sapiens) (UniProt P21127)
[41] = target: STE20/SPS1-related proline-alanine-rich protein kinase (Homo sapiens) (UniProt Q9UEW8)
[42] = target: Protein kinase C theta type (Homo sapiens) (UniProt Q04759)
[43] = target: Serine/threonine-protein kinase 4 (Homo sapiens) (UniProt Q13043)
[44] = target: Protein kinase C iota type (Homo sapiens) (UniProt P41743)
[45] = target: Serine/threonine-protein kinase RIO3 (Homo sapiens) (UniProt O14730)

Chain of Ephrin type-A receptor 3 (Homo sapiens) (P29320 whole entry): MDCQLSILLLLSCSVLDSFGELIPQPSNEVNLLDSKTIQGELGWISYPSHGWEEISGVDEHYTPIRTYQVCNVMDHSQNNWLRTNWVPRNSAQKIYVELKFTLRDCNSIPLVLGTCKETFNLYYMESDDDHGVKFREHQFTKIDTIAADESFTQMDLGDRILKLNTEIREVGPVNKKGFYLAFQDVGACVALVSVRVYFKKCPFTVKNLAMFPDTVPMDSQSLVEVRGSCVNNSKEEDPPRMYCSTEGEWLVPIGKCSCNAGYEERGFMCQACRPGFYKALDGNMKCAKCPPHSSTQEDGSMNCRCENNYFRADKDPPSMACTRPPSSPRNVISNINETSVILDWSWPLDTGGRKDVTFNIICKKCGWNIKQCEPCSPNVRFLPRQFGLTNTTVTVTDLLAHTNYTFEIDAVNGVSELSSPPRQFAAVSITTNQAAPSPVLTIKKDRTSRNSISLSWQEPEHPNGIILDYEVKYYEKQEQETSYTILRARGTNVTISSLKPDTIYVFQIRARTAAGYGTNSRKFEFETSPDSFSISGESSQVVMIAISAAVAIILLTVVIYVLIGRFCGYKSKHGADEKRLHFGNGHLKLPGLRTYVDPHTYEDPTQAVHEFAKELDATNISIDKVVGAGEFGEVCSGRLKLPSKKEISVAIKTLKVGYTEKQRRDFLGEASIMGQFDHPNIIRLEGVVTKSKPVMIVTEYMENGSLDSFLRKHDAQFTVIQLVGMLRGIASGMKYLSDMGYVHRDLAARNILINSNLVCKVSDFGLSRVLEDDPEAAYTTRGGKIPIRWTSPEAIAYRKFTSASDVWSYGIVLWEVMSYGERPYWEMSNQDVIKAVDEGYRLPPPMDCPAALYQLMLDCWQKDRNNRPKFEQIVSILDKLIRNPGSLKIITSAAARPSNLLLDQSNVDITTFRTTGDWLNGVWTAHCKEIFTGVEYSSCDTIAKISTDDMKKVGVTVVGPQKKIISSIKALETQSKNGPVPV
Chain of Casein kinase II subunit alpha (Homo sapiens) (P68400 whole entry, looked up): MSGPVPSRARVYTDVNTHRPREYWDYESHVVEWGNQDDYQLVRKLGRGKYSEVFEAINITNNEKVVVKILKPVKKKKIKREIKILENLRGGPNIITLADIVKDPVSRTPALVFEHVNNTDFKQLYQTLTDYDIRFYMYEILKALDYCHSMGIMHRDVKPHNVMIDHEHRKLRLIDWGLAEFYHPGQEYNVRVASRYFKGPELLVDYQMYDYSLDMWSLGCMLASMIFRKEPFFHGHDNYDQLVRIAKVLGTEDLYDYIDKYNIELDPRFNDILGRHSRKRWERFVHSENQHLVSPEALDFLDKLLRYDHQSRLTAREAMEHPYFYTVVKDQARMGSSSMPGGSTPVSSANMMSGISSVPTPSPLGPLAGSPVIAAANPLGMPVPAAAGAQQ
Chain of Vascular endothelial growth factor receptor 3 (Homo sapiens) (P35916 whole entry): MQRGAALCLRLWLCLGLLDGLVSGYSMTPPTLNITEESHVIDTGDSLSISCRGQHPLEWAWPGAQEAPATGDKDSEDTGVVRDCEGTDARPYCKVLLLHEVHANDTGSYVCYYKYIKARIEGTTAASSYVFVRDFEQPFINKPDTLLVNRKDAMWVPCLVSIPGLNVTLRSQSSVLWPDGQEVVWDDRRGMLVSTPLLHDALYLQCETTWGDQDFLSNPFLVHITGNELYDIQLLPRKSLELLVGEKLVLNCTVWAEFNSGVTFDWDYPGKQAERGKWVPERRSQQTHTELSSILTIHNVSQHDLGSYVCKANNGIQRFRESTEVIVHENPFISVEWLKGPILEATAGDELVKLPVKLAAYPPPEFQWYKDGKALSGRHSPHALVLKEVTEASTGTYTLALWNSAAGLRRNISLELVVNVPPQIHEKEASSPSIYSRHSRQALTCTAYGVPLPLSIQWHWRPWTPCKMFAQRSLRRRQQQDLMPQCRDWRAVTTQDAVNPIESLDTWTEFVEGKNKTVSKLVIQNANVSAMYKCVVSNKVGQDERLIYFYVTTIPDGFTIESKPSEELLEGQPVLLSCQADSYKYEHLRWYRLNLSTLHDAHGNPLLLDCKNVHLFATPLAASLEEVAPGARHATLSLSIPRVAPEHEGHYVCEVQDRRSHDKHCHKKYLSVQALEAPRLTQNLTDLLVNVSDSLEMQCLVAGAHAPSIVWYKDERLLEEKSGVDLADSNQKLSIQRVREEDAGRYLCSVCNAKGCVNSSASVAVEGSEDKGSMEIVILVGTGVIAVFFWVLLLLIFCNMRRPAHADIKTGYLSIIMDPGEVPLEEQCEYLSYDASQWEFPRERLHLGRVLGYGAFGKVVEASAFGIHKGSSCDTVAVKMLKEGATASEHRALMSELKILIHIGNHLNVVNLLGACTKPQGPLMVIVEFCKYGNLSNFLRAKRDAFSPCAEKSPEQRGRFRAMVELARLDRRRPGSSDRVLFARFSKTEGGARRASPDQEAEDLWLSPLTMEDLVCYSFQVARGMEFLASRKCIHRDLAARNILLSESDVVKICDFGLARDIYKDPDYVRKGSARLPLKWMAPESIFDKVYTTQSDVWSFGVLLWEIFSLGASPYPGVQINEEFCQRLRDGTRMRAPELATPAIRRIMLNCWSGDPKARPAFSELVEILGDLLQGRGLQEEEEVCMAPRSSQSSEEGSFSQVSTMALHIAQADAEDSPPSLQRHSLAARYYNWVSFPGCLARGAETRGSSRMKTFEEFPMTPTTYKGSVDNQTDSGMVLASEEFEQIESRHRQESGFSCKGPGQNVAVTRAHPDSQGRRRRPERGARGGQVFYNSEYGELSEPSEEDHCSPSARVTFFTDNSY
Chain of Serine/threonine-protein kinase 4 (Homo sapiens) (Q13043 whole entry): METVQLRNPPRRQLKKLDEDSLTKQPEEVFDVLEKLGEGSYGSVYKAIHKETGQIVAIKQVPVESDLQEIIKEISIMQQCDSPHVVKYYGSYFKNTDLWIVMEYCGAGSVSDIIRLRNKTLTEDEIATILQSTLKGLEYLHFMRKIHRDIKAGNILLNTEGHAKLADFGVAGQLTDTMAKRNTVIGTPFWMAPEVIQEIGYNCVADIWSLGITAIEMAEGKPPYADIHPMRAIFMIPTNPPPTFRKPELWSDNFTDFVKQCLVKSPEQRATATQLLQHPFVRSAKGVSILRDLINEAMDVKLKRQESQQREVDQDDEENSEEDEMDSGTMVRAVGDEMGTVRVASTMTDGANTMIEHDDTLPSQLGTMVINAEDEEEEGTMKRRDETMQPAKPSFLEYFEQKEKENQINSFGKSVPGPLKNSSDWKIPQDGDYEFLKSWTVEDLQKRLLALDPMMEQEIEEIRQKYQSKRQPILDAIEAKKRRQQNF
Chain of Protein kinase C iota type (Homo sapiens) (P41743 whole entry): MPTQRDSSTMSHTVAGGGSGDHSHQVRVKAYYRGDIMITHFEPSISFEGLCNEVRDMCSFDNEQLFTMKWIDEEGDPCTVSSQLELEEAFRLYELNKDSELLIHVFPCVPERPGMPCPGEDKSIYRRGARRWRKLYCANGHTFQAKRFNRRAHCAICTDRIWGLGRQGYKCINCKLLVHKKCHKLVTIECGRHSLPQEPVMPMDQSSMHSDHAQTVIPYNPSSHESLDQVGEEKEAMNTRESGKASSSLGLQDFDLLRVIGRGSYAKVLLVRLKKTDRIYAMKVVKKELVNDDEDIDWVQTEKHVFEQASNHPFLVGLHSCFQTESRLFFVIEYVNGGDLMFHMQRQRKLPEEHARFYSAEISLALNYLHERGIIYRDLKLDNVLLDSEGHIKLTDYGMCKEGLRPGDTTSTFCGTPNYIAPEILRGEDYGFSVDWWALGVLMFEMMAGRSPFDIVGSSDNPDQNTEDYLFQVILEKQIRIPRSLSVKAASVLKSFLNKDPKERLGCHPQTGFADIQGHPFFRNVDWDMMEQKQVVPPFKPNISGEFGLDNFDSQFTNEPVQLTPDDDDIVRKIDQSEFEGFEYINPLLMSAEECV
Chain of High affinity nerve growth factor receptor (Homo sapiens) (P04629 33-796 limits assumed): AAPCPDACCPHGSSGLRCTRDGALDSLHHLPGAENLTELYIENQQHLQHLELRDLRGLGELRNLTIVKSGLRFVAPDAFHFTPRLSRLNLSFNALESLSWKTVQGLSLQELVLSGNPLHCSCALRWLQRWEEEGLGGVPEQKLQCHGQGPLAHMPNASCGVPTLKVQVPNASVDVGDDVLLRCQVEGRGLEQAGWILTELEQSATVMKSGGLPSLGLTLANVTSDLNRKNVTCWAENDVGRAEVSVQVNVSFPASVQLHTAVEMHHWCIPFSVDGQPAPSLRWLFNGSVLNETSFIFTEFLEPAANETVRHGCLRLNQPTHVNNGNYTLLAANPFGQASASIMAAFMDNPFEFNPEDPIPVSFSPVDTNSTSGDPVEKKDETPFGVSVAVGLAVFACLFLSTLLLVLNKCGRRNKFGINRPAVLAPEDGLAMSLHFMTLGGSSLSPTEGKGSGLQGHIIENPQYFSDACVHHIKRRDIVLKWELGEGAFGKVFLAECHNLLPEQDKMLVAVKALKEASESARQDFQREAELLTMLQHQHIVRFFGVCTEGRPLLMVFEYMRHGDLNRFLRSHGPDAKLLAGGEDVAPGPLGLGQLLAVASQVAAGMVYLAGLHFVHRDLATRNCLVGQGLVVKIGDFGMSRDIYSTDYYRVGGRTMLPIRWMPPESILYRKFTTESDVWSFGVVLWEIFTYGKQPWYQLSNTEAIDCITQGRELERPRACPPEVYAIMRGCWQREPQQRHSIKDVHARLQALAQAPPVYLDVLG
Chain of Mitogen-activated protein kinase 10 (Homo sapiens) (P53779 whole entry): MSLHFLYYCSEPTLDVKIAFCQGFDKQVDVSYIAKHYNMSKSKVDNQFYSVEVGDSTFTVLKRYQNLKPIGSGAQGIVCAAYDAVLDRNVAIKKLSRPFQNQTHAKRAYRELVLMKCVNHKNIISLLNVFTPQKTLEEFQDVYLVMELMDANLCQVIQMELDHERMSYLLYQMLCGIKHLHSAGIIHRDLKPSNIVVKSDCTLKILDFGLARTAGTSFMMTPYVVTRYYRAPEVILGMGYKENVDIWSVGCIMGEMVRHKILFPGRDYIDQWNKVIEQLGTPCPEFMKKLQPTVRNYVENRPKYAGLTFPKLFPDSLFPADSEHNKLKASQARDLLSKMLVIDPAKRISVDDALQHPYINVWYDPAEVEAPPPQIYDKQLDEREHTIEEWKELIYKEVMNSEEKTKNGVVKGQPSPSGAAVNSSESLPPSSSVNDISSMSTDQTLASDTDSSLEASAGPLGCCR

CS(=O)(=O)N1CCCC(NC(=O)[C@H](CCC2CCCCC2)NC(=O)c2ccc(CNc3ncnc4c3nnn4-c3ccccc3)cc2)C1 (stereo not given in full) [SR-301]
residual activity [1]: 100% | residual activity [2]: 100% | residual activity [3]: 86% | residual activity [4]: 91% | residual activity [5]: 99% | residual activity [6]: 81% | residual activity [7]: 96% | residual activity [8]: 90% | residual activity [9]: 94% | residual activity [10]: 100% | residual activity [11]: 100% | residual activity [12]: 94% | residual activity [13]: 75% | residual activity [14]: 100% | residual activity [15]: 87% | residual activity [16]: 100% | residual activity [17]: 78% | residual activity [18]: 100% | residual activity [19]: 100% | residual activity [20]: 85% | residual activity [21]: 100% | residual activity [22]: 100% | residual activity [23]: 83% | residual activity [24]: 67% | residual activity [25]: 85% | residual activity [26]: 100% | residual activity [27]: 82% | residual activity [28]: 95% | residual activity [29]: 100% | residual activity [30]: 91% | residual activity [31]: 100% | residual activity [32]: 87% | residual activity [33]: 100% | residual activity [34]: 100% | residual activity [35]: 94% | residual activity [36]: 60% | residual activity [37]: 87% | residual activity [38]: 100% | residual activity [39]: 90% | residual activity [40]: 100% | residual activity [41]: 100% | residual activity [42]: 90% | residual activity [43]: 100% | residual activity [44]: 100% | residual activity [45]: 88%

CS(=O)(=O)N1CCCC(NC(=O)[C@H](CCC2CCCCC2)NC(=O)c2ccc(CNC(=O)c3cnc4ccccn34)cc2)C1 (stereo not given in full) [SR-302]
residual activity [1]: 100% | residual activity [2]: 100% | residual activity [3]: 100% | residual activity [4]: 67% | residual activity [5]: 67% | residual activity [6]: 95% | residual activity [7]: 97% | residual activity [8]: 65% | residual activity [9]: 100% | residual activity [10]: 91% | residual activity [11]: 85% | residual activity [12]: 100% | residual activity [13]: 97% | residual activity [14]: 100% | residual activity [15]: 85% | residual activity [16]: 94% | residual activity [17]: 98% | residual activity [18]: 95% | residual activity [19]: 100% | residual activity [20]: 100% | residual activity [21]: 88% | residual activity [22]: 100% | residual activity [23]: 74% | residual activity [24]: 72% | residual activity [25]: 100% | residual activity [26]: 100% | residual activity [27]: 100% | residual activity [28]: 100% | residual activity [29]: 100% | residual activity [30]: 70% | residual activity [31]: 100% | residual activity [32]: 37% | residual activity [33]: 88% | residual activity [34]: 84% | residual activity [35]: 100% | residual activity [36]: 64% | residual activity [37]: 100% | residual activity [38]: 83% | residual activity [39]: 100% | residual activity [40]: 94% | residual activity [41]: 88% | residual activity [42]: 97% | residual activity [43]: 100% | residual activity [44]: 94% | residual activity [45]: 97%
